Measured values taken from ChEMBL document CHEMBL1146449, “Trypanocidal flavonoids from Trixis vauthieri” (1997).

Experiments:
Format in all cases: functional
Parameters in all cases: scale not given: the % may be the effect or the level left
[1] = system: Trypanosoma cruzi; assay: Trypanocidal activity against Trypanosoma cruzi Y strain trypomastigotes infected in Swiss albino mouse blood assessed as reduction of parasitemia at 1000 ug/mL after 24 hrs relative to control
[2] = system: Trypanosoma cruzi; assay: Trypanocidal activity against Trypanosoma cruzi Y strain trypomastigotes infected in Swiss albino mouse blood assessed as reduction of parasitemia at 31 ug/mL after 24 hrs relative to control
[3] = system: Trypanosoma cruzi; assay: Trypanocidal activity against Trypanosoma cruzi Y strain trypomastigotes infected in Swiss albino mouse blood assessed as reduction of parasitemia at 500 ug/mL after 24 hrs relative to control

Structure (SMILES)	Activity [1] [%]	Activity [3] [%]	also measured
COc1cc(O)c2c(c1)OC(c1ccc(O)cc1)C(O)C2=O (stereo not given)	0	–	–
COc1c(OC)c(O)c2c(=O)c(OC)c(-c3ccc(O)cc3)oc2c1OC [CALYCOPTERIN]	0	–	–
CN(C)c1ccc(C(=C2C=CC(=[N+](C)C)C=C2)c2ccc(N(C)C)cc2)cc1.[Cl-] [GENTIAN VIOLET]	–	–	Activity [2]: 50%
COc1cc2oc(-c3ccc(O)cc3)c(OC)c(=O)c2c(O)c1OC [PENDULETIN]	–	86	–
COc1cc(O)c2c(c1)O[C@H](c1ccc(O)cc1)CC2=O [SAKURANETIN]	–	100	–
